The numbers were not newly measured in article PMC5643362 (Acta Diabetologica, 2017), which cites them from elsewhere.

As for Exendin-4, the “Resistance to dipeptidyl peptidase IV” value with dipeptidyl peptidase IV was “resistant”. Moreover, the “Resistance to neural endopeptidase” value in the series with neural endopeptidase is “resistant”.
